Assay results reported in patent publication US20120165319A1, “INHIBITORS OF INTERLEUKIN-1 BETA CONVERTING ENZYME” (VERTEX PHARMACEUTICALS INCORPORATED, priority 1995, published 2012).

Key:
[1] = test system: IL-1β, human peripheral blood mononuclear cells (PBMC); test: PBMC cell assay: IL-1β assay with human PBMC or enriched adherent mononuclear cells, LPS-stimulated; format: cell-based
Summary of the method: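 Mature IL-1β is measured by ELISA in supernatants after 16–18 hr at 37 °C, 5% CO2, with LPS (5 ng/ml final) and test compound (0.1% DMSO final). Cells are human PBMC (6×10^6 cells/ml) or plate-adherent mononuclear cells (2.5−3.0×10^5 per well), and the 5–6 compound concentrations span the ICE Ki.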

[2] = In vivo rat clearance assay; details: plasma, iv
Summary of the method: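 Rats cannulated a day beforehand received 10–20 mg/kg by intravenous jugular dosing in propylene glycol/saline with 100 mM sodium bicarbonate. Carotid blood was sampled from 0 to 90 min, and plasma was extracted with acetonitrile/0.1% TFA for HPLC quantification. Clearance from non-linear regression pharmacokinetic analysis.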

[3] = target: T1, ICE (Homo sapiens, UniProt P29466); test: Enzyme assay with UV-visible substrate (visible ICE assay, Succinyl-Tyr-Val-Ala-Asp-pNitroanilide); format: biochemical
T1 sequence (P29466 120-297 limits assumed): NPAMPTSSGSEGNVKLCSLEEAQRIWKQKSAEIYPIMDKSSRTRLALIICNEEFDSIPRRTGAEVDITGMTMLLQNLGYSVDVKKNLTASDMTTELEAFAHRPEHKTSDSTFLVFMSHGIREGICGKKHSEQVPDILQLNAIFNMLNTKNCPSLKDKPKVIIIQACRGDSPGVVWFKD
T1 sequence (P29466 317-404 limits assumed): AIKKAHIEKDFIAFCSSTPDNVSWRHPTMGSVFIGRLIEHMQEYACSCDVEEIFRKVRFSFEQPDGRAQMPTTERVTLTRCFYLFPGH
Summary of the method: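 Buffer, ICE and inhibitor in DMSO are combined and held 15 min at room temperature. Succinyl-Tyr-Val-Ala-Asp-pNA is then added and absorbance at 405-603 nm tracked for 20 min at 37° C.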

[4] = Homo sapiens, PBMC, * = values obtained upon reassay

Row | clearance ([2]; 10-20 mg/kg) [mL/min/kg] | Ki ([3]; Table 5) [nM] | clearance ([2]; Table 17) [mL/min/kg] | Ki ([3]; Table 17) [nM] | SMILES | IC50 [1, 4] [nM] | IC50 ([1]; Homo sapiens, PBMC, Table 17) [nM] | IC50 ([1]; * = values obtained upon reassay) [nM]
1 | 60 | 4000 |  |  | O=C[C@H](CC(=O)O)NC(=O)[C@@H]1CCCN2C(=O)CCN(NS(=O)(=O)c3ccccc3)C(=O)N12 [Compound 1027, [3S(4S)]3-(6,10-Dioxo-1,2,3,4,7,8,9,10-octahydro-7-phenylsulphonylamino-6H-pyridazino[1,2-a][1,2,4]triazepine-4-carboxamido)-4-oxobutanoic acid] | > 20000 |  | 
2 |  |  | 34 | 27 | O=C[C@H](CC(=O)O)NC(=O)[C@@H]1CCCN2C(=O)CCN(NC(=O)c3cc4ccccc4s3)C(=O)N12 [Compound 1053, [3S(4S)]3-[7-(Benzo[b]thiophene-2-carbonyl)amino-6,10-dioxo-1,2,3,4,7,8,9,10-octahydro-6H-pyridazino[1,2-a][1,2,4]triazepine-4-carboxamido]-4-oxobutanoic acid] |  | 2000 | 
3 |  |  | 14.5 | 120 | O=C[C@H](CC(=O)O)NC(=O)[C@@H]1CCCN2C(=O)CCN(NC(=O)c3cc4ccccc4[nH]3)C(=O)N12 [Compound 1075, [3S(4S)]3-[6,10-Dioxo-7-(indole-2-carboxamido)-1,2,3,4,7,8,9,10-octahydro-6H-pyridazino[1,2-a][1,2,4]triazepine-4-carboxamido]-4-oxobutanoic acid] |  | 5000 | 
4 | 60 | 9 |  |  | COCC(=O)N1C[C@H](NC(=O)c2cccc3ccccc23)C(=O)N(CC(=O)N[C@H](C=O)CC(=O)O)c2ccccc21 [Compound 2201, (3S)-3-[(3S)-2-oxo-3-(1-naphthoyl)amino-5-methoxyacetyl-2,3,4,5-tetrahydro-1H-1,5-benzodiazepine-1-acetylamino]4-oxo-butyric acid] | 2000 |  | 3700
